Assay [1] has as its system PMP-2 model. The assay can be described thus: In vivo tumor growth, orthotopic PMP-2 model, single injection.
The subject of assay [2] is PMP-1 model. Briefly: In vivo tumor growth, orthotopic PMP-1 model, single i.p. injection. The settings on record: both tested doses (2.5 and 5 mg/kg i.p.).
Assay [3] concerns PMCA-1 model. The assay can be described thus: In vivo tumor growth, orthotopic PMCA-1 model, single i.p. injection. The settings on record: 5 mg/kg vs 2.5 mg/kg i.p.
In assay [4] the test system is orthotopic models of mucinous peritoneal surface malignancies. Briefly: In vivo tumor growth, orthotopic models of mucinous peritoneal surface malignancies (model not singled out). The following applies: all models; 10 mg/kg i.p.
The test system of assay [5] is 2774 ovarian peritoneal carcinomatosis. The assay can be described thus: 2774 ovarian peritoneal carcinomatosis mouse model. The class given is in vivo. The following applies: 2774 model; treatment initiated on day 2. An excerpt: The therapeutic potential of intraperitoneal administration of MOC31PE was then investigated in two experimental mouse models based on the ovarian cancer cell lines B76 (FIG. 15) and 2774 (FIG. 16). The animals were divided into three groups. Day 1 the animals were intraperitoneal injected with B76 cancer cell to mimic the situation in patients after cytoreductive surgery, were non-visible cancer cells are still left. MOC31PE treatment was initiated the day after (Day 2) or on day 8, as indicated by giving either MOC31PE 50 μg/kg intraperitoneal injection (i.p.) or 32 μg/kg intravenous injection (i.v.). […] Disease progression, as increase of abdominal size and other signs of symptoms, were measured twice weekly. Body weight was recorded throughout the experiments. Survival as a function of treatment was analysed by Kaplan-Meier plots.

The test system of assay [6] is mucinous tumor tissue (PMP-2, PMCA-2, PMP-3, PMP-6). The assay can be described thus: Ex vivo PARP cleavage, Western immunoblot. The class given is cell-based, human. The following applies: 24 h, PMP-2 xenograft tissue and both patient samples. As to the method:
The mucinous cell suspension was seeded in 48-well plates (500 μl/well). […] Thereafter, the cells were lysed by using an SDS boiling method as described previously (Andersson2009). In brief, cell pellets were resuspended in lysis buffer (2% SDS, 1 mM Na3VO4, and 10 mM Tris-Cl (pH 7.6)), which was held at 100° C. when added, and the lysates were boiled for 5 min. After six passages through a 20G syringe on ice, the lysates were cleared by centrifugation. Protein concentrations were then determined using the BCA (bicinchoninic acid) protein assay (Pierce, Rockford, Ill.). The lysates were snap frozen in liquid N2 and kept at −70° C. A portion (15 μg) of each protein lysate was fractionated by 4-12% NuPAGE Bis-Tris gel electrophoresis (Invitrogen, Carlsbad, Calif.), and subsequently transferred by electroblotting to Immobilon membranes (Millipore, Bedford, Mass.). The filters were probed with an anti-PARP antibody (Roche Diagnostics, Mannheim, Germany), anti-EpCAM (MOC31, IQ Corporation, Groningen, the Netherlands) or with anti-alpha tubulin (Calbiochem, La Jolla, Calif.). Immune complexes were detected with an appropriate HRP-coupled secondary antibody. Peroxidase activity was visualized with […] (Amersham Pharmacia Biotech, Buckinghamshire, UK). The western blots were probed with anti-α-tubulin antibody to confirm equal loading and transfer of samples.

This is an account of results in US20140248292A1, “COMPOSITIONS AND METHODS FOR TREATING CANCER” (priority 2013, published 2014).

On to `CO[C@@]12[C@H](COC(N)=O)C3=C(C(=O)C(C)=C(N)C3=O)N1C[C@@H]1N[C@@H]12` [Mitomycin C, mitomycin C], for which the “inhibition of tumor growth” value in assay [1] (all tested doses, single i.p.) is “substantial inhibition of tumor growth”. Further, the “tumor growth within the observation period” value in assay [1] (both tested doses (2.5 and 5 mg/kg i.p.)) was “almost completely inhibited tumor growth”; in assay [2], “almost completely inhibited tumor growth”. Moreover, in assay [3], the “efficacy, comparison of doses” value is reported as 5 mg/kg was more efficacious than 2.5 mg/kg.

In the case of `O=C1[O][Pt]2([NH][C@@H]3CCCC[C@H]3[NH]2)[O]C1=O` [Oxaliplatin, oxaliplatin], the “growth inhibition (growth indices) compared to vehicle-treated animals” value in assay [4] is “only slight reduction of growth indices”.

As for `CC(=O)O[C@H]1C(=O)[C@@]2(C)[C@H]([C@H](OC(=O)c3ccccc3)[C@]3(O)C[C@H](OC(=O)[C@H](O)[C@@H](NC(=O)c4ccccc4)c4ccccc4)C(C)=C1C3(C)C)[C@]1(OC(C)=O)CO[C@@H]1C[C@@H]2O` [Ptx, Paclitaxel], the “survival / disease progression, combinatorial treatment experiment” value in assay [5] is given as “significant effect on disease progression”.

Take pseudomonas exotoxin A [PE toxin]: the “PARP cleavage / PARP inactivation (Western immunoblot)” value in assay [6] is listed as “No PARP inactivation was evident”.
